Experimental findings from patent publication US20140314791A1, “METHODS OF TREATING CANCER” (DANA-FARBER CANCER INSTITUTE, INC., priority 2012, published 2014) are described below.

The subject of series [1] is Lkb1-null versus Lkb1-wt cell lines. The experiment in a line: Large-scale pooled shRNA library screening (murine 40K pool). The format is cell-based, mouse.
Series [2] has as its system Lkb1-wt cells. The experiment in a line: IdU pulse-labeling after Dtymk knockdown, Lkb1-wt. The format is cell-based, mouse. As to conditions: for proportion of cells labeled with IdU: mean. Here is the method: (E) Lkb1-wt and Lkb1-null cells in 6-well plates were transduced with shDtymk-1 or shGFP. Two sets of the cells were plated into multiple chamber slides: one was 2 days and the other was 3 days post transduction. After overnight culturing, the cells were labeled with 100 μM IdU for 20 min then fixed for indirect immunofluorescence staining with anti-BrdU. The data represent mean±SD for 200˜300 cells. Representative merged images of BrdU (red) and DAPI (blue) in the indicated cells are shown (F).
The lower expression of DTYMK in Lkb1-null cells causes the cells to be in jeopardy of DNA damage. To investigate how further knockdown of Dtymk and the consequent decrease in the dTTP pool could affect DNA metabolism, IdU pulse-labeling in Lkb1-wt and Lkb1-null cells was performed 2.5 and 3.5 days post-transduction with shDtymk-1. […] The representative images of Lkb1-wt and Lkb1-null cells co-stained for IdU and DAPI are shown (FIG. 5F). In addition, an overall lower proportion of labeled Lkb1-null than Lkb1-wt cells (43.1% vs. 57.7%) was observed, which may be related to the lower dNTP levels in Lkb1-null cells.

The subject of series [3] is Lkb1-wt (634, 855, and 857) and Lkb1-null (t2, t4, and t5) cells. The experiment in a line: Proliferation assay of shRNA-transduced cells (CellTiter-Glo). The format is cell-based, mouse. As to conditions: in vitro, puromycin 3 μg/ml. Here is the method:
Viable cells were measured daily using Promega's CellTiter-Glo Assay. Two independent sets of transductions into the 6 cell lines were shown: the first set used shGFP, shDtymk-1, and shChek1-4 (upper panels), and the second set used shGFP, shDtymk-3, and shChek1-1 (lower panels).
Lentiviral production and target cell transduction were performed according to previously description (Moffat et al., 2006). Briefly, 293T cells were co-transfected with pLenti-vector, pCMV-dR8.74psPAX2, and pMD2.G using TransIT-LT1 transfection reagent (Mirus). Thirty-six h after transfection, the supernatant was harvested and spun at 3000 rpm/4° C. for 10 min, and then incubated with target cells in the presence of 8 μg/ml polybrene (Sigma) for 24 h. Two days after infection, the cells were collected for further analysis as indicated in the presence of 3 μg/ml Puromycin (Invitrogen).
Cells were plated into 96-well plates at 2000 cells per well in 100 μl, with addition of puromycin at 3 μg/ml for shRNA lentivirus infected cells, or with addition of variable doses of drug for drug treatment effects. Viable cells were measured daily or for a period of up to 3 days either by CellTiter-Glo Luminescent Cell Viability Assay (Promega) or by Cell Counting Kit-8 (CCK-8) (Dojindo) according to the manufacturer's instructions. All proliferation assays were performed in triplicate wells.
Depletion of DTYMK and CHEK1 was confirmed by Western blot (FIG. 11B).

For series [4], the system named is Lkb1-null cells. The experiment in a line: Array-based viral infection and cell proliferation assay (validation), Lkb1-null. The arrangement: species or system mouse. The procedure: (§1) (C) Validation study. Relative viability of Lkb1-wt and Lkb1-null cells infected with 340 individual hairpins for 5 days. Genes of interest are highlighted by the colors indicated.
(§2) For array-based viral infection and assessment of proliferation, 2.5 μl virus was mixed with 250 cells in 100 μl medium containing 8 μg/ml polybrene per well in 96-well plates. The plates were spun at 2250 rpm/37° C. for 30 min. Immediately after spinning, supernatants were gently aspirated off and 100 μl fresh medium was added to each well of the 96-well plates. After 2 days incubation, medium was gently aspirated off and 100 fresh medium containing 3 μg/ml puromycin was added to each well of the 96-well plates. The plates were back to culture for additional 3 days and then the viable cells were monitored by alamarBlue (Invitrogen) assay according to manufacturer's instructions.
(§3) To identify Lkb1-null-selective essential genes, a synthetic lethal screen was performed using a pooled 40K murine shRNA lentiviral library for each of the Lkb1-wt and Lkb1-null cell lines described above. Relative abundance of shRNAs in each cell line sample was determined by deep-sequencing analysis, and for every shRNA, a log 2 Fold Change (log 2FC) value was calculated from the difference in relative abundance at a late time point after infection versus the initial shRNA-infected sample. An unsupervised hierarchical clustering analysis of the ranked hairpins from the triplicate pooled shRNA library screens of Lkb1-wt and Lkb1-null mouse cancer cells is shown in FIG. 1A. […] The ranked hairpins were collapsed by using two methods, a RIGER analysis (KS t-test based statistics) and a weighted second best analysis to rank genes that selectively impaired proliferation/viability in Lkb1-null cells. A union of 344 genes, identified by the top 100 individual hairpins for 88 genes (Table 1) and the top 200 genes from both the KS (Table 2) and weighted second best (Table 3), was nominated as the initial prioritized list (FIG. 1B). 340 shRNAs, targeting 70 candidate genes from this prioritized list, were chosen for validation (Table 4). The 70 genes consisted of the top 10 candidates from the KS analysis, as well as 60 others involved in a range of biological processes in an attempt to represent all biological categories in the validation process. Validation was performed in an array format with an assay of relatively short duration (5 days post infection) compared to the primary pooled screen (28 days), which should be a more stringent selection, as it required the anti-proliferative effects to manifest in a short time period. […] Dtymk, Check1, and Pdhb are the top 3 candidate genes, each with 3 hairpins that scored in the validation assay (FIG. 1C).

For series [5], the system named is Lkb1-null t2, t4, and t5 cells. Put plainly: dTTP rescue of shDtymk growth phenotype. The format is cell-based, mouse. Particulars: without additional dTTP, 3 days. The procedure: (B) Morphology of Lkb1-null t2, t4, and t5 cells transduced with shGFP or shDtymk-1 and then cultured with or without additional 150 μM dTTP in medium for 3 days.
Next it was determined whether adding dTTP to the media could rescue cell death after Dtymk knockdown. Three Lkb1-null cell lines were transduced with shGFP or shDtymk-1 and then selectively cultured in puromycin medium in the presence or absence of 150 μM dTTP for 3 days (Taricani et al., 2010). […] Expression of DTYMK in the shDtymk-1 cells was not determined because the remaining cells were too few for RNA and protein extraction (FIG. 4B).

For series [6], the system named is Lkb1-wt cells. Put plainly: Array-based viral infection and cell proliferation assay (validation), Lkb1-wt. Also on record: species or system mouse. As to conditions: 5 days post infection, alamarBlue. The procedure:
as §1, §2, §3

The subject of series [7] is Dtymk. Put plainly: QPCR analysis of Dtymk knockdown in Lkb1-wt 634 cells. Particulars: normalized to shGFP.

Take “shDtymk-1: shRNA hairpin CAAGCTTCTGAATTCCTACTT targeting Mouse Dtymk”: the “Hairpin-rank in pooled shRNA screen” value in series [1] (Table 6) was 27050. Besides, the NES in series [1] (gene-level normalized enrichment score over all hairpins of the gene) is 1.540. In series [1] (gene-level rank by NES), the Gene rank is given as 91. Further, the “# HP 500” value in series [1] (number of the gene's hairpins ranked within top 500) was found to be 1. Besides, the “# HP 1000” value in series [1] (number of the gene's hairpins ranked within top 1000) was 1. Also, the “# HP 5000” value in series [1] (number of the gene's hairpins ranked within top 5000) was found to be 1. Also, in series [1] (number of the gene's hairpins ranked within top 10000), the “# HP 10000” value amounted to 2. In addition, the figures for the “proportion of cells labeled with IdU” value in series [2] (day 2.5 post infection) and in series [2] (day 3.5 post infection) were 46.3% and 22.3%, respectively. Also, the “drop of proportion of IdU-labeled cells” value in series [2] (in 3.5 days) is reported as 61.2%. Further, in series [3], the “cell growth compared to shGFP control, Lkb1-null versus Lkb1-wt” value was “inhibition was stronger in Lkb1-null cells”. In series [4] (Table 6), the “Growth of Lkb1-wt/Lkb1-null in array-based validation” value amounted to 4.16. For the same substance, the “Null ave-GR” value in series [4] (validation, 5 days post infection, alamarBlue) is given as 0.13. Besides, the “growth of shDtymk-transduced Lkb1-null cells” value in series [5] is on record as “grew poorly”. Moreover, the “WT ave-GR” value in series [6] came out at 0.53. For the same substance, the “mRNA remaining (by qPCR)” value in series [7] is recorded as 20.00%.
